Patent publication US20210199658A1, “DETECTION OF LIPASE ACTIVITY IN HONEY BEES” (The United States of America, as Represented by the …, priority 2019, published 2021)

Columns and labels:
honey bees [1] = test: Time course of lipase activity (RFU) in honey bees challenged with imidacloprid; format: in vivo, Apis mellifera
Protocol: Healthy honey bees were challenged in a cup-cage environment with either 5 ppb or 50 ppb of the neonicotinoid imidacloprid. The lipase activity levels were measured during a 50 minute time course, as taught herein.
To determine if it is possible to detect a difference between healthy bees and DWV-infected bees using the EnzChek lipase substrate and the buffers taught herein, a time course assay was performed using a set amount of EnzChek lipase substrate and a fixed amount of extracted pupae. […] In this figure, the relative fluorescence intensity (RFU) measured was plotted against time. Using linear regression, a significant difference in slopes was observable between individuals from DWV-infected hives, and individuals from healthy hives. The slope obtained for DWV-infected individuals was about 13.8 higher than the slope obtained for healthy individuals.
Healthy seven and fourteen-day-old emerging adult honey bees were obtained from field colonies and were challenged with either 5 ppb or 50 ppb of the neonicotinoid imidacloprid. Same-aged bees were collected from unchallenged colonies acted as controls. The lipase activity levels were measured during a 30-minute time course, as in Example 3. […] Statistical significance was determined using pair-wise Kaplan Meier linear regression (P<0.01).

honey bees [2] = test: Total lipid content of imidacloprid-challenged bees, vanillin assay; format: in vivo, Apis mellifera
Protocol: The total lipid content on bees challenged with either 5 ppb or 50 ppb imidacloprid was measured using the vanillin assay, performed as in Example 4. The measured lipid levels (in mg/mL) were plotted, and the results are shown on FIG. 10. The total lipid content for bees treated with 5 ppb imidacloprid (P<0.01) or 50 ppb imidacloprid (P<0.05) was approximately 3-fold lower than the total lipid content measured in control bees.
To determine if the lipase activity measured in healthy and DWV-infected hives correlated with the measured lipid levels, the vanillin assay (Foray, V., et al., 2012, “A handbook for uncovering the complete energetic budget in insects: the van Handel's method (1985) revisited,” Physiol. Entomol. 37: 295-302) was used to measure the lipid levels in the bees. Briefly, vanillin reagent was prepared by mixing vanillin (V1104; Sigma-Aldrich, St. Louis, Mo., USA) with 68% ortho-phosphoric acid, reaching a final concentration of 1.2 g/L. For the assay, 100 μL of homogenized pupae in PBS was transferred into a borosilicate microplate well and heated at 90° C. until complete solvent evaporation. Ten microliters of 98% sulphuric acid was then added to each well, and the microplate was incubated at 90° C. for 2 minutes in a water bath. […] The plate was homogenized, incubated at room temperature for 15 minutes and its absorbance was measured spectrophotometrically at 525 nm.

## O=[N+]([O-])NC1=NCCN1Cc1ccc(Cl)nc1 [imidacloprid, 1-(6-chloro-3-pyridylmethyl)-N-nitroimidazolidin-2-ylideneamine]
Honey bees [1]; bees challenged with 5 ppb imidacloprid
  lipase activity levels (slope of RFU against time) compared with control bees: similar
Honey bees [1]; bees challenged with 50 ppb imidacloprid, linear regression P<0.01
  lipase activity levels (RFU against time) compared with control bees: significantly higher
Honey bees [2]; bees treated with 5 ppb imidacloprid, P<0.01
  total lipid content, fold lower than control bees: approximately 3 fold
Honey bees [2]; bees treated with 50 ppb imidacloprid, P<0.05
  total lipid content, fold lower than control bees: approximately 3 fold
